Tested on: G542X#10-HBE5x5
Experiment: Read-through of a premature termination codon, G542X#10-HBE5x5 (Table 3)
Format: cell-based
Conditions: with G418
Experimental: The compounds shown in Table 1 were evaluated for their ability to stimulate read-through of a premature termination codon, and their respective activities are shown in Tables 2 and 3 below.

`CCn1c(=O)c(C(=O)CN[C@H](C(=O)OC)C(C)C)c(N)n(Cc2ccccc2)c1=O` [1.15] and `CCn1c(=O)c(C(=O)CN[C@H](C(N)=O)C(C)C)c(N)n(Cc2ccc(F)cc2)c1=O` [1.187] cannot be ordered by EC50: at least 100 µM for the first, at least 100 µM for the second.

Compared with `CCn1c(=O)c(C(=O)CN(CC(N)=O)C(C)C)c(N)n(Cc2ccc(F)cc2)c1=O` [1.133], `CCn1c(=O)c(C(=O)CN(CC(=O)NC)C(C)C)c(N)n(Cc2ccccc2)c1=O` [1.39] is higher in EC50: 50.5 µM for the first, at least 100 µM for the second.

`CCn1c(=O)c(C(=O)CN2CCCC[C@@H]2C(N)=O)c(N)n(Cc2nccn2C)c1=O` [2.15] and `CCn1c(=O)c(C(=O)CN2CCCC[C@@H]2C(N)=O)c(N)n(Cc2ccc(F)nc2)c1=O` [2.21] cannot be ordered by EC50: at least 30 µM for the first, at least 30 µM for the second.

`CCCNC(=O)CN(C)CC(=O)c1c(N)n(Cc2ccccc2)c(=O)n(C)c1=O` [1.42] and `CCOC(=O)CN(CC(=O)c1c(N)n(Cc2ccccc2)c(=O)n(CC)c1=O)C(C)C` [1.18, ethyl 2-((2-(6-amino-1-benzyl-3-ethyl-2,4-dioxo-1,2,3,4-tetrahydropyrimidin-5-yl)-2-oxoethyl)(isopropyl)amino)acetate] cannot be ordered by EC50: at least 100 µM for the first, at least 100 µM for the second.

`CCn1c(=O)c(C(=O)CN2CCCCC2c2nc3ccccc3[nH]2)c(N)n(Cc2ccccc2)c1=O` (stereo not shown) [1.106] and `CCn1c(=O)c(C(=O)CN2CCCCC2C(N)=O)c(N)n(Cc2ccccc2)c1=O` (stereo not shown) [1.48] cannot be ordered by EC50: at least 100 µM for the first, at least 100 µM for the second.

`CCn1c(=O)c(C(=O)CN2CCCC[C@@H]2C(N)=O)c(N)n(CCc2ccc(F)cc2)c1=O` [2.7] and `CCn1c(=O)c(C(=O)CN2CCCC[C@@H]2C(N)=O)c(N)n(Cc2ccc(O)cc2)c1=O` [1.217] cannot be ordered by EC50: at least 30 µM for the first, at least 100 µM for the second.

`CCn1c(=O)c(C(=O)CN2CCc3cccc(C(N)=O)c3C2)c(N)n(Cc2ccc(F)cc2)c1=O` [1.222] and `CCn1c(=O)c(C(=O)CN2CCc3cccc(C(=O)OC)c3C2)c(N)n(Cc2ccc(F)cc2)c1=O` [1.220] cannot be ordered by EC50: at least 100 µM for the first, at least 100 µM for the second.

`CN(C)C(=O)C1CCCCN1CC(=O)c1c(N)n(Cc2ccc(F)cc2)c(=O)n(Cc2ccc(F)cc2)c1=O` (stereo not shown) [1.73] and `CCn1c(=O)c(C(=O)CN2CCCC[C@@H]2C(=O)OC)c(N)n(Cc2ccc(F)cc2)c1=O` [2.2] cannot be ordered by EC50: 62.9 µM for the first, at least 30 µM for the second.

`NC(=O)C1CCCCN1CC(=O)c1c(N)n(Cc2ccc(F)cc2)c(=O)n(CCC(=O)O)c1=O` (stereo not shown) [1.228] and `CCn1c(=O)c(C(=O)CN2CCC(O)CC2C(N)=O)c(N)n(Cc2ccc(F)cc2)c1=O` (stereo not shown) [1.221] cannot be ordered by EC50: at least 100 µM for the first, at least 100 µM for the second.

Going from `NC(=O)C1CCCCN1CC(=O)c1c(N)n(Cc2cccc(Cl)c2)c(=O)n(Cc2cccc(Cl)c2)c1=O` (stereo not shown) [1.104] to `CCn1c(=O)c(C(=O)CN2CCCC[C@@H]2C(N)=O)c(N)n(Cc2ccc(F)c(Cl)c2)c1=O` [2.17], the EC50 rises from 25 µM to at least 30 µM. The first is the more potent here.

`CCn1c(=O)c(C(=O)CN2CCCNC2=O)c(N)n(Cc2ccc(F)cc2)c1=O` [1.212] and `CCn1c(=O)c(C(=O)CN2CCNC(=O)C2)c(N)n(Cc2ccc(F)cc2)c1=O` [1.209] cannot be ordered by EC50: at least 100 µM for the first, at least 100 µM for the second.

`CCn1c(=O)c(C(=O)CN2CCCC[C@@H]2C(N)=O)c(N)n(Cc2ccc(C#N)cc2F)c1=O` [2.23] and `CCn1c(=O)c(C(=O)CN2CCCC[C@@H]2C(N)=O)c(N)n(Cc2ccccc2F)c1=O` [2.3] cannot be ordered by EC50: at least 30 µM for the first, at least 30 µM for the second.

`CCn1c(=O)c(C(=O)CNc2ccc(C)cc2)c(N)n(Cc2ccc(F)cc2)c1=O` [1.227] and `CCn1c(=O)c(C(=O)CN2CCCC[C@@H]2C(=O)NCC2CC2)c(N)n(Cc2ccc(F)cc2)c1=O` [1.174] cannot be ordered by EC50: at least 100 µM for the first, at least 100 µM for the second.

`CCn1c(=O)c(C(=O)CN2CCOCC2)c(N)n(Cc2ccccc2)c1=O` [1.11] and `CCn1c(=O)c(C(=O)CN2CCCC[C@@H]2C(N)=O)c(N)n(Cc2ccc(Cl)c(F)c2)c1=O` [2.18] cannot be ordered by EC50: at least 100 µM for the first, at least 30 µM for the second.

`CCn1c(=O)c(C(=O)CN2CCCCC2C(N)=O)c(N)n(Cc2ccc(F)c(OC)c2)c1=O` (stereo not shown) [1.164] and `CCn1c(=O)c(C(=O)CN2CCCC[C@@H]2C(N)=O)c(N)n(Cc2ccc(C(F)(F)F)nc2)c1=O` [2.24] cannot be ordered by EC50: at least 100 µM for the first, at least 30 µM for the second.

`NC(=O)C1CCCCN1CC(=O)c1c(N)n(Cc2ccccc2)c(=O)n(C2CCCCC2)c1=O` (stereo not shown) [1.51] showed an EC50 of at least 100 µM.

— US12486254B2, “Uracil derivatives for stimulating read-through of premature termination codons” (Southern Research Institute, priority 2022, dated 2025)
